Experimental data taken from patent US11459356B2, “Neuronal nicotinic acetylcholine receptor-targeting polypeptide and use thereof” (priority 2021, dated 2022).
Positions of bridges follow the written chain, without caps; N, C: chain ends. No end group written: not given here.

System: human nAChR
Assay: Calcium response of nAChR-overexpressing CN21 cells pre-incubated with polypeptide
Format: cell-based
Conditions: CN21 cells expressing human nAChR; polypeptide 10^-11-10^-5 M; 6 hours incubation; FIG. 5
Description: The bioactivity of polypeptide nAChR_BP was assessed by using […] expressing human nAChR. The CN21 cells were incubated in 12-well plates one day prior. After 25 hours of incubation, the media were removed and new media containing various concentrations (10^−11-10^−5 M) of the polypeptide were added to incubate the cells. Six hours later, concentrations of calcium ion were measured using a kit, such that the activity of nAChR_BP was determined in vitro by assessing the antagonism of the nAChR mediated increase of [Ca2+] in CN21 cells.

Substance: nAChR_BP: novel polypeptide with amino acid sequence of SEQ ID NO: 1 that targets neuronal nicotinic acetylcholine receptor (ACCLFNCHSWVGC; disulfide 2-13, 3-7)
- antagonism of the nAChR mediated increase of [Ca2+] in CN21 cells: capable of significantly inhibiting nAChRs
